In patent US20110171279A1, “POLYETHYLENIMINE BIOCIDES” (NDSU RESEARCH FOUNDATION, priority 2009, published 2011):
In brackets after ≈: the same amount, converted by molar mass. Where two headings read alike, the source gives them in different places.

How the values were obtained:
Format in all cases: cell-based
[1] = system: Escherichia coli; assay: Growth reduction / MIC test against Escherichia coli in Luria-Bertani broth, absorbance 600 nm; conditions: for MIC: Escherichia coli, read-out: E. Coli MIC; for Percent reduction in growth of Escherichia coli: Table 3
Procedure: (§1) The antimicrobial properties of the Formulations were determined by measuring the minimum inhibitory concentration (MIC) or by using an adaptation of the MIC test. […] Additional details of the MIC method can be found at Andrews, J. M., Journal of Antimicrobial Chemotherapy (2001) 48, 5-16, incorporated herein by reference in its entirety.
(§2) In accordance with the MIC test, working solutions for each Formulation were prepared by dissolving 100 mg of each Formulation in 10 mL of methanol (Sigma-Aldrich) to generate a 10 mg/mL solution. Next, 10 ml of Luria-Bertani broth was spiked with 200 μL of the mg/mL Formulation solution to achieve a final concentration of 0.2 mg/mL.
0.2 mL of each concentration of each Formulation (spiked with E. coli) was added in triplicate to a 96-well plate. Additionally, 0.2 mL of Luria-Bertani broth without any E. coli or Formulation and 0.2 mL of Luria-Bertani broth with E. coli, but no Formulations, served as negative and positive growth controls, respectively. Plates were then placed in an incubator, at 37° C. for 24 hrs (with shaking), and then measured for growth by taking absorbance measurements at 600 nm with a multi-well plate spectrophotometer (Synergy HT). The efficacy of each Formulation was measured by determining the percent reduction in bacterial growth as a function of Formulation concentration.
Next, the antimicrobial activity of Formulations 69-77 and Reference 1 toward E. coli was measured by determining the percent reduction in bacterial growth as a function of concentration. The results for the examples were compared to various PEIs used to produce the examples.

[2] = system: Cellulophaga lytica; assay: Growth reduction / MIC test against Cellulophaga lytica; conditions: for MIC: Cellulophaga lytica; for Percent reduction in growth of Cellulophaga lytica: Table 5
Procedure: as §1
as §2, with “ml of Guillard's F/2 medium was spiked” for “ml of Luria-Bertani broth was spiked”, “of the 10 mg/mL Formulation” for “of the mg/mL Formulation”
0.2 mL of each concentration of each Formulation (spiked with C. lytica) was added in triplicate to a 96-well plate. Additionally, 0.2 mL of Guillard's F/2 medium without any C. lytica or Formulation and 0.2 mL of Guillard's F/2 medium with C. lytica, but no Formulations, served as negative and positive growth controls, respectively. The 96-well plates were placed in an illuminated growth cabinet with a 16:8 light:dark cycle (photon flux density 33 μmol m^−2 s^−1) for 48 hrs at 18° C. and measured for chlorophyll fluorescence using a multi-well plate spectrophotometer (excitation: 360 nm; emission: 670 nm). The efficacy of each Formulation was measured by determining the percent reduction in diatom growth as a function of Formulation concentration.
The antimicrobial activity of Formulations 10-12, also derived from ETCS and PEI, was determined toward a suite of marine microorganisms, namely, Pseudoalteromonas atlantica, Cellulophaga lytica, Cobetia marina, and Halomonas pacifica. The antimicrobial activity of Formulations 10-12 was determined toward these marine microorganisms according to the methods of EXAMPLES 5-7. The MIC for each Formulation against each strain is compared to that of the PEI, ETCS, and TCS (alone) in Table 7.

[3] = system: Navicula incerta; assay: Growth reduction / MIC test against Navicula incerta in Guillard's F/2 medium, chlorophyll fluorescence; conditions: Table 12; read-out: N. incerta MIC
[4] = Formulation Concentration 0.78125 μg/mL
[5] = Formulation Concentration 1.5625 μg/mL
[6] = Formulation Concentration 3.125 μg/mL
[7] = Formulation Concentration 6.25 μg/mL
[8] = Formulation Concentration 12.5 μg/mL
[9] = Formulation Concentration 25 μg/mL
[10] = Formulation Concentration 50 μg/mL
[11] = Formulation Concentration 100 μg/mL

Row | SMILES | Percent reduction in growth of Escherichia coli [1, 4] [%] | Percent reduction in growth of Escherichia coli [1, 5] [%] | Percent reduction in growth of Escherichia coli [1, 6] [%] | Percent reduction in growth of Escherichia coli [1, 7] [%] | Percent reduction in growth of Escherichia coli [1, 8] [%] | Percent reduction in growth of Escherichia coli [1, 9] [%] | Percent reduction in growth of Escherichia coli [1, 10] [%] | Percent reduction in growth of Escherichia coli [1, 11] [%] | Percent reduction in growth of Cellulophaga lytica [2, 4] [%] | Percent reduction in growth of Cellulophaga lytica [2, 5] [%] | Percent reduction in growth of Cellulophaga lytica [2, 6] [%] | Percent reduction in growth of Cellulophaga lytica [2, 7] [%] | Percent reduction in growth of Cellulophaga lytica [2, 8] [%] | Percent reduction in growth of Cellulophaga lytica [2, 9] [%] | Percent reduction in growth of Cellulophaga lytica [2, 10] [%] | Percent reduction in growth of Cellulophaga lytica [2, 11] [%] | further results
1 | Clc1ccc(Oc2ccc(Cl)cc2OCC2CO2)c(Cl)c1 (stereo not drawn) [ETCS, 2-((5-chloro-2-(2,4-dichlorophenoxy)phenoxy)methyl)oxirane] | 0.00 | 0.00 | 0.00 | 0.00 | 0.00 | 0.00 | 0.00 | 0.26 | 0.00 | 5.92 | 10.06 | 11.24 | 33.73 | 57.40 | 69.23 | 14.20 | MIC ([1]; Table 12): > 100 µg/mL; MIC ([2]; Table 7, read-out: C. lytica MIC): > 100 µg/mL; C. lytica MIC ([2]; Table 12): >100 µg/mL; MIC [3]: > 100 µg/mL
2 | Oc1cc(Cl)ccc1Oc1ccc(Cl)cc1Cl [TCS, triclosan] | 14.66 | 52.34 | 93.43 | 93.93 | 93.43 | 93.93 | 93.93 | 93.93 | 12.29 | 32.40 | 59.78 | 86.87 | 86.87 | 87.15 | 87.15 | 86.59 | MIC [1]: 0.781 µg/mL; MIC ([2]; read-out: C. lytica MIC, Table 7): 6.25 to 12.5 µg/mL (≈ 21.6 to 43.2 µM); MIC ([2]; read-out: C. lytica MIC, Table 12): 12.5 µg/mL (≈ 43.2 µM)
